Experimental data taken from US20220289657A1, “COMPOSITION FOR PREVENTING OR TREATING BACTERIAL INFECTIOUS DISEASE COMPRISING 4-GINGEROL DERIVATIVE COMPOUND AS ACTIVE INGREDIENT” (KOREA UNIVERSITY RESEARCH AND BUSINESS FOUNDATION, SEJONG …, priority 2019, published 2022).

Columns and labels:
[1] = test system: rhlR variant of P. aeruginosa; assay: Pyocyanin production assay, rhlR variant; assay type: cell-based, Pseudomonas aeruginosa; settings: 10 μM, FIG. 9C
Method: P. aeruginosa cultured overnight with a positive control or compound (0-10 μM) was inoculated in an AB medium, incubated for 24 hours at 37° C., and centrifuged for 10 minutes at 10,000 rpm. To extract pyocyanin, the supernatant was reacted with 50% trifluoroacetic acid (TFA, Sigma-Aldrich) for 1 hour at 37° C. The reacted supernatant was centrifuged for 10 minutes at 10,000 rpm, and filtered through a 0.22-μm filter. […] Specific HPLC conditions are as follows: mobile phase deionized water; TFA (99:1); injection volume:10 μL; temperature: 25° C.; and flow rate: 0.5 mL/min. The retention time of pyocyanin (Sigma-Aldrich) is 20 minutes. To measure a pyocyanin amount, when the retention time was 20 minutes, the height of an analysis peak was detected.

[2] = test system: Pseudomonas aeruginosa-injected T. molitor larvae; assay: Mortality of Pseudomonas aeruginosa-injected T. molitor larvae; assay type: in vivo, Tenebrio molitor; settings: 10 μM; 20 days of incubation; FIG. 10
Method: The mortality of Tenebrio molitor (T. molitor) larvae was measured with a positive control or compound (0-10 μM) by the method used as in previous research. Overnight-cultured P. aeruginosa (OD 595 nm=1.0) was centrifuged for 10 minutes at 10,000 rpm. The supernatant was filtered through a 0.22-μm filter, and injected into the larvae using a syringe needle. The larvae were stored in a petri dish for 20 days at 25° C. The mortality of the larvae was measured every 5 days.

[3] = test system: Pseudomonas aeruginosa; assay: Bacterial growth under static condition (OD 595 nm of suspended culture); assay type: cell-based
Method in brief: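 Overnight P. aeruginosa culture diluted 1:20 in AB medium (pH 7.5, 1% glucose) with compound at 0–100 μM, held static in borosilicate bottles at 37° C. for 24 hours. Growth read as OD 595 nm of suspended culture; attached biofilm stained with 0.1% crystal violet, ethanol-eluted, read at 545 nm.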

[4] = test system: Pseudomonas aeruginosa; assay: EPS analysis of drip-flow biofilm cells (carbohydrates, proteins); assay type: cell-based; settings: 10 μM
Method: EPS analysis was carried out with the biofilm cells attached to the slides after the operation of the drip-flow reactor. The biofilm cells that were centrifuged were re-suspended with 0.01M KCl, and for the analysis of carbohydrates and proteins, the cells were disrupted with a sonicator (VCX 750, SONICS, Newtown, Conn., USA) for 5 seconds at a level of 3.5 Hz, followed by stopping for 5 seconds, which was repeated 4 times. A supernatant of the cell-disrupted suspension was filtered through a 0.22 μm membrane filter (Millex filter, Carl Roth, Karlsruhe, Germany). For protein analysis, a mixture containing 40 μL of the filtrate and 200 μL of a Lowry reagent (L3540, Sigma-Aldrich) was incubated at room temperature for 10 minutes. Afterward, 20 μL of a Folin-Ciocalteu reagent (Sigma-Aldrich) was added and incubated at room temperature for 30 minutes, followed by measuring OD at 750 nm using a multimode plate reader. A protein amount was quantified at OD 750 nm or OD 595 nm. For carbohydrate analysis, a mixture containing 50 μL of the filtrate and 150 μL of 99.9% sulfuric acid was incubated at room temperature for 30 minutes. Afterward, 5% phenol was added, followed by incubation at 90° C. for 5 minutes. OD was measured at 490 nm using a multimode plate reader. The amount of carbohydrates was quantified at OD 490 nm or OD 595 nm.

SMILES: CCCC(=O)C#Cc1ccc(F)c(F)c1 [Compound 30, 1-(3,4-Difluorophenyl)hex-1-yn-3-one]
- virulence factor (pyocyanin) production vs control of the rhlR variant [1]: no difference
- larvae survived to the end of the incubation [2]: approximately 80%
- effect on cell growth (in words) ([3]; 100 PM [sic] (100 μM)): no effect
- activity at 10 µM ([3]; Pseudomonas aeruginosa, 24 h, read-out: Relative biological activity (%) Bacterial growth 10): 103%
- activity at 100 µM ([3]; Pseudomonas aeruginosa, 24 h, read-out: Relative biological activity (%) Bacterial growth 100): 99%
- reduction of the amount of carbohydrates in EPS ([4]; FIG. 8B): 39%
- reduction of the amount of proteins in EPS ([4]; FIG. 8C): 72%
